Data reported in patent US20180084779A1, “PLANT DISEASE CONTROL AGENT AND USE THEREOF” (NIHON NOHYAKU CO., LTD., priority 2015, published 2018).

Legend:
[1] = test system: Septoria tritici, KUK-1-21 Strain; assay: Test for wheat leaf blotch, fluoroimide and/or DMI agent sprayed on wheat pots, lesion area index 17 days after inoculation; type: in vivo; conditions: for Controlling effect Combination with fluoroimide / Controlling effect DMI alone: 17 days; for Controlling effect DMI alone: fluoroimide 0 ppm
Procedure: (§1) Test for Wheat Leaf Blotch (Septoria tritici, KUK-1-21 Strain):
(§2) Agrochemical liquids containing a predetermined concentration of fluoroimide and/or a predetermined concentration of each DMI agent were applied to wheat in a predetermined amount with a spray gun. After air drying, a suspension of fungus spore of Septoria tritici adjusted to 1.0×10^7 spores/ml was inoculated by spraying. After that, the wheat pots were kept in a growth chamber under a light condition of at 15° C. 100% RH to encourage the development of the disease. Seventeen days after the inoculation, the lesion area index (0-10) was determined for the evaluation of the control effect.
(§3) Control effect (%)=[(Disease index of no treatment area−Disease index of treatment area)/Disease index of no treatment area]×100 [Formula 1]
(§4) The expected effect (expected value E) by using an active ingredient in combination with each of other active ingredients in the above tests was determined by the following Colby formula (see COLBY, S. R., Weeds 15: 20-22 (1967)).
(§5) E(Expected effect)=(X+Y)−(X×Y/100) [Formula 2]
X=controlling effect of fungicide A alone
Y=controlling effect of fungicide B alone

[2] = test system: Septoria tritici, KUK-1-21 Strain; assay: Test for wheat leaf blotch, fluoroimide and/or SDHI agent sprayed on wheat pots, lesion area index 21 days after inoculation; type: in vivo; conditions: for Control effect Combination with fluoroimide / Control effect SDHI alone: 21 days; for Control effect SDHI alone: fluoroimide 0 ppm
Procedure: as §3, §4, §5, §1
as §2, with “SDHI” for “DMI”, “Twenty-one” for “Seventeen”, “set and” for “determined for”, “controlling effects and expected values are examined in” for “evaluation of”, “same manner as Example 1.” for “control effect.”

[3] = DMI agent 1 ppm + fluoroimide 50 ppm
[4] = DMI agent 1 ppm + fluoroimide 100 ppm
[5] = DMI agent 3 ppm + fluoroimide 50 ppm
[6] = DMI agent 3 ppm + fluoroimide 100 ppm
[7] = DMI agent 10 ppm + fluoroimide 50 ppm
[8] = DMI agent 10 ppm + fluoroimide 100 ppm
[9] = SDHI agent 1 ppm + fluoroimide 50 ppm
[10] = SDHI agent 1 ppm + fluoroimide 100 ppm
[11] = SDHI agent 3 ppm + fluoroimide 50 ppm
[12] = SDHI agent 3 ppm + fluoroimide 100 ppm
[13] = SDHI agent 10 ppm + fluoroimide 50 ppm
[14] = SDHI agent 10 ppm + fluoroimide 100 ppm

Fc1ccc([C@]2(Cn3cncn3)O[C@H]2c2ccccc2Cl)cc1 (racemic) [epoxiconazole]
Controlling effect Expected value (Colby) [1, 3]: 25%
Controlling effect Combination with fluoroimide [1, 3]: 19%
Controlling effect Expected value (Colby) [1, 4]: 50%
Controlling effect Combination with fluoroimide [1, 4]: 72%
Controlling effect DMI alone ([1]; DMI agent 1 ppm): 0%
Controlling effect Expected value (Colby) [1, 5]: 63%
Controlling effect Combination with fluoroimide [1, 5]: 62%
Controlling effect Expected value (Colby) [1, 6]: 75%
Controlling effect Combination with fluoroimide [1, 6]: 83%
Controlling effect DMI alone ([1]; DMI agent 3 ppm): 50%
Controlling effect Expected value (Colby) [1, 7]: 71%
Controlling effect Combination with fluoroimide [1, 7]: 84%
Controlling effect Expected value (Colby) [1, 8]: 81%
Controlling effect Combination with fluoroimide [1, 8]: 83%
Controlling effect DMI alone ([1]; DMI agent 10 ppm): 61%

Cn1cc(C(=O)Nc2ccc(F)cc2-c2ccc(Cl)c(Cl)c2)c(C(F)F)n1 [bixafen]
Control effect Expected value (Colby) [2, 9]: 76%
Control effect Combination with fluoroimide [2, 9]: 95%
Control effect Expected value (Colby) [2, 10]: 81%
Control effect Combination with fluoroimide [2, 10]: 85%
Control effect SDHI alone ([2]; SDHI agent 1 ppm): 75%
Control effect Expected value (Colby) [2, 11]: 86%
Control effect Combination with fluoroimide [2, 11]: 100%
Control effect Expected value (Colby) [2, 12]: 89%
Control effect Combination with fluoroimide [2, 12]: 90%
Control effect SDHI alone ([2]; SDHI agent 3 ppm): 85%
Control effect Expected value (Colby) [2, 13]: 100%
Control effect Combination with fluoroimide [2, 13]: 100%
Control effect Expected value (Colby) [2, 14]: 100%
Control effect Combination with fluoroimide [2, 14]: 100%
Control effect SDHI alone ([2]; SDHI agent 10 ppm): 100%

O=C(Nc1ccccc1-c1ccc(Cl)cc1)c1cccnc1Cl [boscalid]
Control effect Expected value (Colby) [2, 9]: 10%
Control effect Combination with fluoroimide [2, 9]: 15%
Control effect Expected value (Colby) [2, 10]: 29%
Control effect Combination with fluoroimide [2, 10]: 0%
Control effect SDHI alone ([2]; SDHI agent 1 ppm): 5%
Control effect Expected value (Colby) [2, 11]: 19%
Control effect Combination with fluoroimide [2, 11]: 65%
Control effect Expected value (Colby) [2, 12]: 36%
Control effect Combination with fluoroimide [2, 12]: 80%
Control effect SDHI alone ([2]; SDHI agent 3 ppm): 15%
Control effect Expected value (Colby) [2, 13]: 62%
Control effect Combination with fluoroimide [2, 13]: 100%
Control effect Expected value (Colby) [2, 14]: 70%
Control effect Combination with fluoroimide [2, 14]: 95%
Control effect SDHI alone ([2]; SDHI agent 10 ppm): 60%

CC1COC(Cn2cncn2)(c2ccc(Oc3ccc(Cl)cc3)cc2Cl)O1 (stereo not drawn) [difenoconazole]
Controlling effect Expected value (Colby) [1, 3]: 25%
Controlling effect Combination with fluoroimide [1, 3]: 52%
Controlling effect Expected value (Colby) [1, 4]: 50%
Controlling effect Combination with fluoroimide [1, 4]: 94%
Controlling effect DMI alone ([1]; DMI agent 1 ppm): 0%
Controlling effect Expected value (Colby) [1, 5]: 71%
Controlling effect Combination with fluoroimide [1, 5]: 89%
Controlling effect Expected value (Colby) [1, 6]: 81%
Controlling effect Combination with fluoroimide [1, 6]: 89%
Controlling effect DMI alone ([1]; DMI agent 3 ppm): 61%
Controlling effect Expected value (Colby) [1, 7]: 71%
Controlling effect Combination with fluoroimide [1, 7]: 89%
Controlling effect Expected value (Colby) [1, 8]: 81%
Controlling effect Combination with fluoroimide [1, 8]: 100%
Controlling effect DMI alone ([1]; DMI agent 10 ppm): 61%

Cn1cc(C(=O)Nc2ccccc2-c2cc(F)c(F)c(F)c2)c(C(F)F)n1 [fluxapyroxad]
Control effect Expected value (Colby) [2, 9]: 5%
Control effect Combination with fluoroimide [2, 9]: 15%
Control effect Expected value (Colby) [2, 10]: 25%
Control effect Combination with fluoroimide [2, 10]: 50%
Control effect SDHI alone ([2]; SDHI agent 1 ppm): 0%
Control effect Expected value (Colby) [2, 11]: 95%
Control effect Combination with fluoroimide [2, 11]: 90%
Control effect Expected value (Colby) [2, 12]: 96%
Control effect Combination with fluoroimide [2, 12]: 100%
Control effect SDHI alone ([2]; SDHI agent 3 ppm): 95%
Control effect Expected value (Colby) [2, 13]: 100%
Control effect Combination with fluoroimide [2, 13]: 100%
Control effect Expected value (Colby) [2, 14]: 100%
Control effect Combination with fluoroimide [2, 14]: 100%
Control effect SDHI alone ([2]; SDHI agent 10 ppm): 100%

CC1(C)CCC(Cc2ccc(Cl)cc2)C1(O)Cn1cncn1 (stereo not drawn) [metconazole]
Controlling effect Expected value (Colby) [1, 3]: 30%
Controlling effect Combination with fluoroimide [1, 3]: 68%
Controlling effect Expected value (Colby) [1, 4]: 53%
Controlling effect Combination with fluoroimide [1, 4]: 78%
Controlling effect DMI alone ([1]; DMI agent 1 ppm): 6%
Controlling effect Expected value (Colby) [1, 5]: 46%
Controlling effect Combination with fluoroimide [1, 5]: 84%
Controlling effect Expected value (Colby) [1, 6]: 64%
Controlling effect Combination with fluoroimide [1, 6]: 89%
Controlling effect DMI alone ([1]; DMI agent 3 ppm): 28%
Controlling effect Expected value (Colby) [1, 7]: 92%
Controlling effect Combination with fluoroimide [1, 7]: 95%
Controlling effect Expected value (Colby) [1, 8]: 95%
Controlling effect Combination with fluoroimide [1, 8]: 89%
Controlling effect DMI alone ([1]; DMI agent 10 ppm): 89%

CCCN(CCOc1c(Cl)cc(Cl)cc1Cl)C(=O)n1ccnc1 [prochloraz]
Controlling effect Expected value (Colby) [1, 3]: 25%
Controlling effect Combination with fluoroimide [1, 3]: 57%
Controlling effect Expected value (Colby) [1, 4]: 50%
Controlling effect Combination with fluoroimide [1, 4]: 72%
Controlling effect DMI alone ([1]; DMI agent 1 ppm): 0%
Controlling effect Expected value (Colby) [1, 5]: 33%
Controlling effect Combination with fluoroimide [1, 5]: 41%
Controlling effect Expected value (Colby) [1, 6]: 56%
Controlling effect Combination with fluoroimide [1, 6]: 72%
Controlling effect DMI alone ([1]; DMI agent 3 ppm): 11%
Controlling effect Expected value (Colby) [1, 7]: 30%
Controlling effect Combination with fluoroimide [1, 7]: 62%
Controlling effect Expected value (Colby) [1, 8]: 53%
Controlling effect Combination with fluoroimide [1, 8]: 67%
Controlling effect DMI alone ([1]; DMI agent 10 ppm): 6%

CCCC1COC(Cn2cncn2)(c2ccc(Cl)cc2Cl)O1 (stereo not drawn) [propiconazole]
Controlling effect Expected value (Colby) [1, 3]: 25%
Controlling effect Combination with fluoroimide [1, 3]: 62%
Controlling effect Expected value (Colby) [1, 4]: 50%
Controlling effect Combination with fluoroimide [1, 4]: 72%
Controlling effect DMI alone ([1]; DMI agent 1 ppm): 0%
Controlling effect Expected value (Colby) [1, 5]: 46%
Controlling effect Combination with fluoroimide [1, 5]: 89%
Controlling effect Expected value (Colby) [1, 6]: 64%
Controlling effect Combination with fluoroimide [1, 6]: 94%
Controlling effect DMI alone ([1]; DMI agent 3 ppm): 28%
Controlling effect Expected value (Colby) [1, 7]: 33%
Controlling effect Combination with fluoroimide [1, 7]: 89%
Controlling effect Expected value (Colby) [1, 8]: 56%
Controlling effect Combination with fluoroimide [1, 8]: 100%
Controlling effect DMI alone ([1]; DMI agent 10 ppm): 11%

OC(Cc1ccccc1Cl)(Cn1nc[nH]c1=S)C1(Cl)CC1 (stereo not drawn) [prothioconazole]
Controlling effect Expected value (Colby) [1, 3]: 25%
Controlling effect Combination with fluoroimide [1, 3]: 3%
Controlling effect Expected value (Colby) [1, 4]: 50%
Controlling effect Combination with fluoroimide [1, 4]: 61%
Controlling effect DMI alone ([1]; DMI agent 1 ppm): 0%
Controlling effect Expected value (Colby) [1, 5]: 25%
Controlling effect Combination with fluoroimide [1, 5]: 30%
Controlling effect Expected value (Colby) [1, 6]: 50%
Controlling effect Combination with fluoroimide [1, 6]: 72%
Controlling effect DMI alone ([1]; DMI agent 3 ppm): 0%
Controlling effect Expected value (Colby) [1, 7]: 25%
Controlling effect Combination with fluoroimide [1, 7]: 73%
Controlling effect Expected value (Colby) [1, 8]: 50%
Controlling effect Combination with fluoroimide [1, 8]: 67%
Controlling effect DMI alone ([1]; DMI agent 10 ppm): 0%

CC(C)(C)C(O)(CCc1ccc(Cl)cc1)Cn1cncn1 (stereo not drawn) [tebuconazole]
Controlling effect Expected value (Colby) [1, 3]: 30%
Controlling effect Combination with fluoroimide [1, 3]: 62%
Controlling effect Expected value (Colby) [1, 4]: 53%
Controlling effect Combination with fluoroimide [1, 4]: 67%
Controlling effect DMI alone ([1]; DMI agent 1 ppm): 6%
Controlling effect Expected value (Colby) [1, 5]: 58%
Controlling effect Combination with fluoroimide [1, 5]: 68%
Controlling effect Expected value (Colby) [1, 6]: 72%
Controlling effect Combination with fluoroimide [1, 6]: 94%
Controlling effect DMI alone ([1]; DMI agent 3 ppm): 44%
Controlling effect Expected value (Colby) [1, 7]: 71%
Controlling effect Combination with fluoroimide [1, 7]: 89%
Controlling effect Expected value (Colby) [1, 8]: 81%
Controlling effect Combination with fluoroimide [1, 8]: 94%
Controlling effect DMI alone ([1]; DMI agent 10 ppm): 61%
